Earlier results as cited in patent publication US20070021351A1, “Liver/plasma concentration ratio for dosing hepatitis C virus protease inhibitor” (Schering Corporation, priority 2005, published 2007).

Details: in vivo; cited from earlier work

Structure (SMILES) | volume of distribution
C[C@H]1O[C@@H](O[C@H]2[C@@H](O)C[C@H](O[C@H]3[C@@H](O)C[C@H](O[C@H]4CC[C@@]5(C)[C@H](CC[C@@H]6[C@@H]5C[C@@H](O)[C@]5(C)[C@@H](C7=CC(=O)OC7)CC[C@]65O)C4)O[C@@H]3C)O[C@@H]2C)C[C@H](O)[C@@H]1O [digoxin, reference compound] | ~450 L
CCO [ethanol, Ethanol] | about 35 L
